pIC50: −log10 of the molar value.

The test deals with PC3 cells. Nature of the test: xCELLigence RTCA real-time cell invasion assay (CIM plate, Matrigel) on PC3 prostate cancer cells. It is filed as cell-based. The conditions noted are these: Homo sapiens, PC-3, compound 25 uM to 1 uM, cell index monitored for 72 hours, four-parameter dose-response curve, read-out: IC50, Effect of compounds on the invention on prostate cancer cells. As to the method: The media antibiotics and serum were purchased from Invitrogen (Life Technologies). PC3 cells were purchased from ATCC (Granville, NSW, Australia). PC3 cells were expanded in cell culture T75 flasks with vented cap and then preserved in low passage number. The medium used for PC3 cells was RPMI (GlutaMAX) supplemented with 10% FCS and 1% penicillin/streptomycin (culture media). The cells were maintained at 37° C. in a humidified 95% (v/v) air/5% (v/v) CO2 environment and were grown up to 80% confluence.
XCELLigence® real-time cell analysis (RTCA) instrument (ACEA Biosciences), 16-well ACEA CIM-Plates, 16-well ACEA E-Plat and assembly tool were purchased from ELITechGroup empowering IVD (Braeside, Australia). The Matrigel was purchased from Corning (Australia).
To measure cell invasion under compound treatment the upper chamber of the CIM plate was coated with 5% Matrigel diluted in SF RPMI (20 μl) and incubated in a 37° C. tissue culture incubator for four hours. Using the assembly tool to support the chambers the lower chamber was filled with (160 μl) of culture media containing the compound in specific concertation from 25 uM to 1 uM and two controls (DMSO 0.1% and ESFAM 4C 10 uM) (see the schematic in FIG. 1). Once the upper chamber was placed on the top of the lower chamber it was loaded with (40 μl) serum-free (SF) RPMI containing the compound as previously stated. After one hour calibration in 37° C., plates were placed into the xCELLigence station, and the base-line electric impedance was measured to confirm that all wells and connections were working properly. In case of connection problem, the software automatically informs the researcher about the nature of the problem in the message section. Subsequently cells were trypsinized and upon harvesting and counting they were diluted in SF RPMI to desired density (3×10^4) and seeded (100 μl) in the wells. After 30 minutes of incubation in room-temperature to allow cell attachment the plates were loaded in the xCELLigence RTCA DP machine. The cell invasion was monitored in real-time for the duration of 72 hours. […]
The xCELLigence system automatically monitored the electrical impedance value of each well and expressed as a cell index (CI) value for the duration of 72 hours. The data for treatments was automatically grouped as the mean±standard deviation. The software version used in these experiments is 1.2.1. The electronic record of the experimental data is automatically saved in file that cannot be altered or changed by the researcher.
Statistical analysis was performed using Microsoft® Office EXCEL and GraphPad Prism 7. The IC50 was calculated from the four-parameter dose-response curve (log(inhibitor) vs. response-variable slopes). Where the row-data was inserted in GraphPad Prism 7 (Dose response x-log(dose)) and analysed for XY nonlinear regression (curve fit), dose response-inhibition, log(inhibitor) vs response variable slope (four parameters). For the IC90 calculation the log(IC50)=log(IC90)-(1/HillSlope)*log(9) equation was used in EXCEL based on the raw data extracted from xCELLigence system and the dose-response curve.
The pIC50 is the negative decadic logarithm of the IC50, by convention in mol/L. On to `O=C(Nc1cccc(OC(F)(F)F)c1)c1cc2nc(N3Cc4ccccc4C3)cc(-c3cn[nH]c3)n2n1` [Compound 26, 5-(isoindolin-2-yl)-7-(1H-pyrazol-4-yl)-N-(3-(trifluoromethoxy)phenyl)pyrazolo[1,5-a]pyrimidine-2-carboxamide], for which the pIC50 was 5.01.

`CCOc1cccc(NC(=O)c2cc3nc(N4Cc5ccccc5C4)cc(-c4cn[nH]c4)n3n2)c1` [Compound 27, N-(3-ethoxyphenyl)-5-(isoindolin-2-yl)-7-(1H-pyrazol-4-yl)pyrazolo[1,5-a]pyrimidine-2-carboxamide]: the pIC50 was 5.70.

In the case of `CC(C)Oc1cccc(NC(=O)c2cc3nc(N4Cc5ccccc5C4)cc(-c4cn[nH]c4)n3n2)c1` [Compound 28, 5-(isoindolin-2-yl)-N-(3-isopropoxyphenyl)-7-(1H-pyrazol-4-yl)pyrazolo[1,5-a]pyrimidine-2-carboxamide], the pIC50 is 5.69.

For `CN(Cc1ccccc1)c1cc(-c2cn[nH]c2)n2nc(C(=O)Nc3ccc(Cl)cc3)cc2n1` [Compound 29, 5-(benzyl(methyl)amino)-N-(4-chlorophenyl)-7-(1H-pyrazol-4-yl)pyrazolo[1,5-a]pyrimidine-2-carboxamide], the pIC50 is 5.45.

In the case of `CN(Cc1ccccc1)c1cc(-c2cn[nH]c2)n2nc(C(=O)Nc3cccc(Cl)c3)cc2n1` [Compound 30, 5-(benzyl(methyl)amino)-N-(3-chlorophenyl)-7-(1H-pyrazol-4-yl)pyrazolo[1,5-a]pyrimidine-2-carboxamide], the pIC50 is 5.79.

Take `CN(Cc1ccccc1)c1cc(-c2cn[nH]c2)n2nc(C(=O)Nc3ccccc3Cl)cc2n1` [Compound 31, 5-(benzyl(methyl)amino)-N-(2-chlorophenyl)-7-(1H-pyrazol-4-yl)pyrazolo[1,5-a]pyrimidine-2-carboxamide]: the pIC50 was 5.65.

For `CN(Cc1ccccc1)c1cc(-c2cn[nH]c2)n2nc(C(=O)Nc3ccc(C(F)(F)F)cc3)cc2n1` [Compound 32, 5-(benzyl(methyl)amino)-7-(1H-pyrazol-4-yl)-N-(4-(trifluoromethyl)phenyl)pyrazolo[1,5-a]pyrimidine-2-carboxamide], the pIC50 is 5.52.

As for `CN(Cc1ccccc1)c1cc(-c2cn[nH]c2)n2nc(C(=O)Nc3cccc(C(F)(F)F)c3)cc2n1` [Compound 33, 5-(benzyl(methyl)amino)-7-(1H-pyrazol-4-yl)-N-(3-(trifluoromethyl)phenyl)pyrazolo[1,5-a]pyrimidine-2-carboxamide], the pIC50 was 5.59.

For the compound `CN(Cc1ccccc1)c1cc(-c2cn[nH]c2)n2nc(C(=O)Nc3ccccc3C(F)(F)F)cc2n1` [Compound 34, 5-(benzyl(methyl)amino)-7-(1H-pyrazol-4-yl)-N-(2-(trifluoromethyl)phenyl)pyrazolo[1,5-a]pyrimidine-2-carboxamide], the pIC50 is 5.05.

For `CN(Cc1ccccc1)c1cc(-c2cn[nH]c2)n2nc(C(=O)Nc3ccc(F)cc3)cc2n1` [Compound 35, 5-(benzyl(methyl)amino)-N-(4-fluorophenyl)-7-(1H-pyrazol-4-yl)pyrazolo[1,5-a]pyrimidine-2-carboxamide], the pIC50 was 5.85.

In the case of `CN(Cc1ccccc1)c1cc(-c2cn[nH]c2)n2nc(C(=O)Nc3cccc(F)c3)cc2n1` [Compound 36, 5-(benzyl(methyl)amino)-N-(3-fluorophenyl)-7-(1H-pyrazol-4-yl)pyrazolo[1,5-a]pyrimidine-2-carboxamide], the pIC50 is 5.83.

`CN(Cc1ccccc1)c1cc(-c2cn[nH]c2)n2nc(C(=O)Nc3ccccc3F)cc2n1` [Compound 37, 5-(benzyl(methyl)amino)-N-(2-fluorophenyl)-7-(1H-pyrazol-4-yl)pyrazolo[1,5-a]pyrimidine-2-carboxamide]: the pIC50 was 5.51.

As for `COc1ccc(CN(C)c2cc(-c3cn[nH]c3)n3nc(C(=O)Nc4ccc(Cl)cc4)cc3n2)cc1` [Compound 38, N-(4-chlorophenyl)-5-((4-methoxybenzyl)(methyl)amino)-7-(1H-pyrazol-4-yl)pyrazolo[1,5-a]pyrimidine-2-carboxamide], the pIC50 is 5.36.

Take `COc1cccc(CN(C)c2cc(-c3cn[nH]c3)n3nc(C(=O)Nc4ccc(Cl)cc4)cc3n2)c1` [Compound 39, N-(4-chlorophenyl)-5-((3-methoxybenzyl)(methyl)amino)-7-(1H-pyrazol-4-yl)pyrazolo[1,5-a]pyrimidine-2-carboxamide]: the pIC50 is 5.07.

For the compound `COc1ccccc1CN(C)c1cc(-c2cn[nH]c2)n2nc(C(=O)Nc3ccc(Cl)cc3)cc2n1` [Compound 40, N-(4-chlorophenyl)-5-((2-methoxybenzyl)(methyl)amino)-7-(1H-pyrazol-4-yl)pyrazolo[1,5-a]pyrimidine-2-carboxamide], the pIC50 was 5.40.

Regarding `CN(Cc1ccc(C(F)(F)F)cc1)c1cc(-c2cn[nH]c2)n2nc(C(=O)Nc3ccc(Cl)cc3)cc2n1` [Compound 41, N-(4-chlorophenyl)-5-(methyl(4-(trifluoromethyl)benzyl)amino)-7-(1H-pyrazol-4-yl)pyrazolo[1,5-a]pyrimidine-2-carboxamide], the pIC50 was 5.01.

Regarding `CN(Cc1cccc(C(F)(F)F)c1)c1cc(-c2cn[nH]c2)n2nc(C(=O)Nc3ccc(Cl)cc3)cc2n1` [Compound 42, N-(4-chlorophenyl)-5-(methyl(3-(trifluoromethyl)benzyl)amino)-7-(1H-pyrazol-4-yl)pyrazolo[1,5-a]pyrimidine-2-carboxamide], the pIC50 is 5.54.

Regarding `CN(Cc1ccccc1C(F)(F)F)c1cc(-c2cn[nH]c2)n2nc(C(=O)Nc3ccc(Cl)cc3)cc2n1` [Compound 43, N-(4-chlorophenyl)-5-(methyl(2-(trifluoromethyl)benzyl)amino)-7-(1H-pyrazol-4-yl)pyrazolo[1,5-a]pyrimidine-2-carboxamide], the pIC50 is 5.22.

Take `CN(Cc1ccc(Cl)cc1)c1cc(-c2cn[nH]c2)n2nc(C(=O)Nc3ccc(Cl)cc3)cc2n1` [Compound 44, 5-((4-chlorobenzyl)(methyl)amino)-N-(4-chlorophenyl)-7-(1H-pyrazol-4-yl)pyrazolo[1,5-a]pyrimidine-2-carboxamide]: the pIC50 was 4.91.

In the case of `CN(Cc1cccc(Cl)c1)c1cc(-c2cn[nH]c2)n2nc(C(=O)Nc3ccc(Cl)cc3)cc2n1` [Compound 45, 5-((3-chlorobenzyl)(methyl)amino)-N-(4-chlorophenyl)-7-(1H-pyrazol-4-yl)pyrazolo[1,5-a]pyrimidine-2-carboxamide], the pIC50 is 4.97.

Turning to `CN(Cc1ccccc1Cl)c1cc(-c2cn[nH]c2)n2nc(C(=O)Nc3ccc(Cl)cc3)cc2n1` [Compound 46, 5-((2-chlorobenzyl)(methyl)amino)-N-(4-chlorophenyl)-7-(1H-pyrazol-4-yl)pyrazolo[1,5-a]pyrimidine-2-carboxamide], the pIC50 is 5.15.

Regarding `O=C(Nc1cccc(N2CCOCC2)c1)c1cc2nc(N3Cc4ccccc4C3)cc(-c3cn[nH]c3)n2n1` [Compound 47, 5-(isoindolin-2-yl)-N-(3-morpholinophenyl)-7-(1H-pyrazol-4-yl)pyrazolo[1,5-a]pyrimidine-2-carboxamide], the pIC50 was 5.21.

For the compound `CN1CCN(c2cccc(NC(=O)c3cc4nc(N5Cc6ccccc6C5)cc(-c5cn[nH]c5)n4n3)c2)CC1` [Compound 48, 5-(isoindolin-2-yl)-N-(3-(4-methylpiperazin-1-yl)phenyl)-7-(1H-pyrazol-4-yl)pyrazolo[1,5-a]pyrimidine-2-carboxamide], the pIC50 was 5.56.

With `CC(=O)N1CCN(c2cccc(NC(=O)c3cc4nc(N5Cc6ccccc6C5)cc(-c5cn[nH]c5)n4n3)c2)CC1` [Compound 49, N-(3-(4-acetylpiperazin-1-yl)phenyl)-5-(isoindolin-2-yl)-7-(1H-pyrazol-4-yl)pyrazolo[1,5-a]pyrimidine-2-carboxamide], the pIC50 was 5.23.

Turning to `O=C(Nc1cccc(OC2CCC2)c1)c1cc2nc(N3Cc4ccccc4C3)cc(-c3cn[nH]c3)n2n1` [Compound 50, N-(3-cyclobutoxyphenyl)-5-(isoindolin-2-yl)-7-(1H-pyrazol-4-yl)pyrazolo[1,5-a]pyrimidine-2-carboxamide], the pIC50 is 5.84.

The record behind these values is patent publication US12215112B2, “CD151 inhibitors” (ESFAM BIOTECH PTY LTD, priority 2020, dated 2025).
